Patent US10968214B2, “KRas G12C inhibitors” (Eli Lilly and Company, priority 2018, dated 2021)
Like-named read-outs stand apart in the source and are kept apart here.

Key:
Kyse-410 = assay: CellTiterGlo Cell Proliferation Assay, Kyse-410; type: cell-based; details: Homo sapiens, KRas G12C, Esophagus, 96 hr
Description: A panel of tumor cell lines harboring KRas G12C or other KRas mutations are collected (Table 6). All cell lines are from ATCC or other sources indicated.
Typically cells are cultured in RPMI1640 or Dulbecco's modified Eagle's medium (DMEM, GIBCO) supplemented with 10% FBS (GIBCO, Invitrogen). For 2D culture cells (4×10^3/well) maintained in growth medium described above, are plated onto 96 well tissue culture plates Corning® Cat. 3603) a day before the treatment. For 3D culture 8000 cells/well are seeded onto 96 well ultra-low attachment tissue culture plates (Corning, #3474). The cells are treated compound for 96 hr, and then are analyzed for viability using the CellTiterGlo® Luminescent Cell Viability Assay® (Promega #G7572 for 2D and Promega #G9683 for 3D cultures) according to manufacturer's instructions and an EnVision™ plate reader. Nonlinear regression and sigmoidal dose-response curves are used to calculate the half maximal inhibitory concentration (IC50) with GraphPad Prism 4® software.

[1] = target: T1, active KRas in H358 xenograft tumors (Homo sapiens, UniProt P01116, G12C); assay: In vivo target inhibition/PD, H358 xenograft, active KRas; parameters: species or system mouse; details: for inhibition at 10 mg/kg: 10 mg/kg single dose; for inhibition at 30 mg/kg: 30 mg/kg single dose
T1 construct: from tissue; host or cells: H358 xenograft tumours from nude mice
T1 sequence (P01116 1-188 isoform P01116-2 G12C): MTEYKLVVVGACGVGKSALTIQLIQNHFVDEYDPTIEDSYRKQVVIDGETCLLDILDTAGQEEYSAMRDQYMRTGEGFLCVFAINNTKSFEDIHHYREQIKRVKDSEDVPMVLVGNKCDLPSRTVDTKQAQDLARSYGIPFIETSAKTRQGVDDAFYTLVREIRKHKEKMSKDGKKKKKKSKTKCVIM
Description: To evaluate in vivo target inhibition and anti-tumor efficacy of a compound, Human lung cancer cells, H358 or H2122 are implanted into nude mice xenograft tumor models. Either H358 or H2122 cells (10×10^6 in a 1:1 Matrigel® mix, 0.2 mL total volume) are implanted by subcutaneous injection in hind leg of nude female mice (Harlan Laboratories). A total of 5 mice each group are used for efficacy study, and a total of 3-4 mice each group are used for target engagement and PD study. Treatment is initiated with oral administration (gavage) of a test compound or vehicle (20% Captisol®, 25 mM phosphate, pH 2.0 in 0.2 mL volume when the tumor size reaches approximately […]. Tumor growth and body weight are monitored over time to evaluate efficacy and signs of toxicity. Bidimensional measurements of tumors are performed twice a week and tumor volumes are calculated based on mid-axis length and mid-axis width. Tumor volume data are transformed to a log scale to equalize variance across time and treatment groups. The log volume data are analyzed with a two-way repeated measures analysis of variance by time and treatment using the mixed procedures in SAS software (version 8.2). The correlation model for the repeated measures is spatial power. Treated groups are compared to the control group at each time point. The mixed procedure is also used separately for each treatment group to calculate adjusted means and standard errors at each time point. Both analyses account for the autocorrelation within each animal. The adjusted means and standard errors are plotted for each treatment group versus time.
For in vivo target inhibition and PD analysis, tumors are ground by mortar and pestle on dry ice and tumor fragments are added to 800 μL of lysis buffer containing 1% Triton X100, 25 mM Tris pH 7.5, 150 mM NaCl, 1 mM EDTA, and 1 mM EGTA with Halt protease and phosphatase inhibitor cocktail (Thermo Scientific, cat. no. 1861281) in lysing matrix D tubes (MP Biomedical®, cat. no. 6913-500) with one additional large bead (MP Biomedical® ¼″ ceramic sphere bead cat. no. 6540-412) per tube. Tumor fragments are homogenized in a Thermo Bio101® fast prep (FP120) at setting 4 for […] while cold for a total of 2 times. Lysates are spun at 14,000 rpm for 10 min at 4° C. to clarify. Protein estimation is done on the lysate supernatant using a BioRad Dc® protein assay and lysates are diluted in complete lysis/binding buffer from the Ras GTPase Chemi ELISA Kit® (Active Motif, cat. no. 52097). The active KRas ELISA was performed as follows: Glutathione-coated ELISA wells were incubated with diluted RAF1-GST in complete lysis/binding buffer for 1 hr at 4° C. with gentle agitation. Wells are washed 3 times with wash buffer and 100 μg of lysates are added to each well and incubated at RT for 1 hr with mild agitation. The wells are washed an additional 3 times, then primary antibody, diluted in antibody binding buffer, is added to each well. The plates are incubated for 1 hr. The wells are washed 3 more times before adding HRP-conjugated secondary antibody, diluted in antibody binding buffer, to each well. The plates are incubated at RT for 1 hr. ELISA wells are washed 4 times, chemiluminescent reagents is added and then luminescence is read. For pERK Meso Scale Discovery ELISA, 25 μg of protein containing 0.1% SDS is used; for pMEK Meso Scale Discovery ELISA, 50 μg of protein without SDS is used. Meso Scale Discovery Whole Cell Lysate Kits for pERK and pMEK are provided by Meso Scale Discovery.
The tumor samples are collected 4 hr post a single dose. The tumor lysates are prepared and the inhibition of pERK, pMEK, and active KRas is measured as described above.
After a single dose, the tumor samples are harvested at 2, 4, 8, 12 and 24 hr post doing. The tumor lysates are prepared and the inhibition of pERK, pMEK, and active KRas is measured as described above.

[2] = NCI-H358, mouse, 4 hr post dose, read-out: % Inhibition Active KRas
[3] = NCI-H358, mouse, time course, 2 hr, read-out: % Inhibition Active KRas
[4] = NCI-H358, mouse, time course, 4 hr, read-out: % Inhibition Active KRas
[5] = NCI-H358, mouse, time course, 8 hr, read-out: % Inhibition Active KRas
[6] = NCI-H358, mouse, time course, 12 hr, read-out: % Inhibition Active KRas
[7] = NCI-H358, mouse, time course, 24 hr, read-out: % Inhibition Active KRas

inhibition at 1 mg/kg ([1]; NCI-H358, mouse, 1 mg/kg single dose, 4 hr post dose): -1.9% | inhibition at 3 mg/kg ([1]; NCI-H358, mouse, 3 mg/kg single dose, 4 hr post dose): -2.9% | inhibition at 10 mg/kg [1, 2]: 40.9% | inhibition at 10 mg/kg ([1]; NCI-H358, mouse, from 2-24 hr, read-out: active Kras inhibition): 21 to 61% | inhibition at 30 mg/kg [1, 2]: 83.2% | inhibition at 30 mg/kg ([1]; NCI-H358, mouse, from 2-24 hr, read-out: active KRas inhibition): 29 to 70% | inhibition at 100 mg/kg ([1]; NCI-H358, mouse, 100 mg/kg single dose, 4 hr post dose): 87.4% | inhibition at 10 mg/kg [1, 3]: 26.1% | inhibition at 10 mg/kg [1, 4]: 32.9% | inhibition at 10 mg/kg [1, 5]: 30% | inhibition at 10 mg/kg [1, 6]: 61.1% | inhibition at 10 mg/kg [1, 7]: 21.5% | inhibition at 30 mg/kg [1, 3]: 70.4% | inhibition at 30 mg/kg [1, 4]: 65% | inhibition at 30 mg/kg [1, 5]: 66.5% | inhibition at 30 mg/kg [1, 6]: 28.7% | inhibition at 30 mg/kg [1, 7]: 37.7% | EC50 ([1]; plasma exposure by mass spectrum, read-out: plasma concentration to achieve 50% target inhibition (TEC50), active KRas): 574 nM | dose to achieve 50% target inhibition (TED50), active KRas ([1]; single dose, 4 hr): 11.2 mg/kg
SMILES: C=CC(=O)N1CCN(c2ncnc3c(F)c(-c4ccc(F)c5sc(N)nc45)c(Cl)cc23)CC1 [Example 1, 1-{4-[7-(2-Amino-7-fluoro-1,3-benzothiazol-4-yl)-6-chloro-8-fluoroquinazolin-4-yl]piperazin-1-yl}prop-2-en-1-one]
IC50 (Kyse-410; read-out: IC50 (μM) in 2 D cell proliferation): 2.94 µM | IC50 (Kyse-410; read-out: IC50 (μM) in 3 D spheroid cell proliferation): 0.471 µM
